Experimental data published in US20060019410A1, “Apparatus, kits and methods for evaluating binding interactions, for detecting and quantifying binding molecules, and for sample preparation” (Qualyst, Inc., priority 2004, published 2006).

Legend:
[1] = reported; cited from earlier work
[2] = test system: AAG; details: reported; cited from earlier work
[3] = molecular target: T1, HSA (Homo sapiens, UniProt P02768); details: 1 μM drug + 1 μM DS in HSA; 10 mg DCC bed
Protocol: Set-Up of Incubation Study. […] Allow samples to sit at room temperature for one hour.
DCC Extraction Procedure; Protein Precipitation Procedure; Final Sample Preparation. Performed as described in Example 1 and 3.
Chemical Analysis. The analysis of DS and the internal standard is conducted with liquid chromatography coupled to mass spectrometry with electrospray ionization. For a given sample, the peak area of the DS and the internal standard are measured and a ratio (PAR) of these two values is determined.

[4] = molecular target: T1, HSA; assay: percent recovery from HSA with the 96-well ACCUPRO DCC device; format: in vitro ADME
Protocol: Chemical Analysis. […] For a given sample, the peak areas of the particular drug and its internal standard are measured and a ratio of these two values is determined. The peak area ratio (PAR) of the (+) DCC-extracted sample is divided by its corresponding (−) DCC extracted sample PAR to determine a percent recovery value. This recovery value is not a % HSA bound value.
Preparation of DCC plate. Prepare a DCC filter plate with 5 mg and 10 mg bed sizes as described in Example 1 and 3.
Set-Up of Incubation Study.

T1 sequence (P02768 25-609): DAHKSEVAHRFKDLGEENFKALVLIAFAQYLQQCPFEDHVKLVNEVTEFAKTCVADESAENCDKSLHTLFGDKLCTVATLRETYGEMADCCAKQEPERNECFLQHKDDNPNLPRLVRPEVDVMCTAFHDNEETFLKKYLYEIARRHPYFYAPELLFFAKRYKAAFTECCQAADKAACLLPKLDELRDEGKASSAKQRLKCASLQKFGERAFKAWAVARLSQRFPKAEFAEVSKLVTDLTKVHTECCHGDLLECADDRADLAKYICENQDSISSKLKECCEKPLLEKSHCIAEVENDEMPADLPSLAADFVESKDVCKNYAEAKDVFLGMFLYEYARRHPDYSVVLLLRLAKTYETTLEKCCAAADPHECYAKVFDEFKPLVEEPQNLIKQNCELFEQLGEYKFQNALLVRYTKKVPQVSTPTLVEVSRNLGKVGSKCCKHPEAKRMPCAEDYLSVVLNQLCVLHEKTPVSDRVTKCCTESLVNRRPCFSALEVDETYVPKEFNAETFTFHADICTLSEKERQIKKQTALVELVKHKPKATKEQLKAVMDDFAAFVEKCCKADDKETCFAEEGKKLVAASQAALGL

DS (dansylsarcosine) PAR in final sample preparation [3]	percent recovery (relative ranking) ([4]; HSA, naproxen versus ketorolac)	percent recovery from HSA ([4]; drug at 1 μM, 5 mg and 10 mg DCC bed, compared with the usual concentrations (217 μM and 0.5 μM))	SMILES	plasma bound [1]	affinity to AAG / HSA [2]
			CN(C)CCCN1c2ccccc2Sc2ccc(Cl)cc21 [Chlorpromazine]	95-98%	high affinity to AAG and not HSA
higher PAR	lower percent recovery	comparable to values obtained above	O=C(c1ccccc1)c1ccc2n1CCC2C(=O)O (centres unmarked) [Ketorolac]		
